Results on one molecule are retold here after patent US7413837B2, “Charge control agent and toner for electrostatic image development containing the same” (Orient Chemical Industries, Ltd., priority 2002, dated 2008).

This data set can be described thus: confirmatory test of the sublimation. The format is physicochemical. Particulars: 100 mg compound mixed with 2 g resin of acid value 19 mg KOH/g in crucible, heated at 190 degrees centigrade for 1 hour. On the procedure:
Subsequently, the confirmatory test of the sublimation of the monoazo compound was performed. 100 mg of the monoazo compound and 2 g of the resin having 19 mg KOH/g of the acid value were added into a 25 mL crucible, and mixed. A filter paper was put on the crucible. After the bottom of crucible was heated at 190 degrees centigrade for 1 hour, an under side of the filter paper was observed.
Subsequently, the confirmatory test of the sublimation of the monoazo metals-compound was performed. 100 mg of the metals-compound and 2 g of the resin having 19 mg KOH/g of the acid value are added and mixed into a 25 mL crucible. A filter paper was put on the crucible. After the bottom of the crucible was heated at 190 degrees centigrade for 1 hour, the under side of the filter paper was observed.

Structures are written as SMILES.

Take `COC(=O)Nc1cccc2ccc(O)c(N=Nc3cc(Cl)ccc3O)c12` [I-1]: the “sublimation property (accretions of sublimates on under side of filter paper)” value is listed as “no sublimation property”.
